One assay addresses T1, IKKε (Homo sapiens, UniProt Q14164).
T1 sequence (Q14164 1-716): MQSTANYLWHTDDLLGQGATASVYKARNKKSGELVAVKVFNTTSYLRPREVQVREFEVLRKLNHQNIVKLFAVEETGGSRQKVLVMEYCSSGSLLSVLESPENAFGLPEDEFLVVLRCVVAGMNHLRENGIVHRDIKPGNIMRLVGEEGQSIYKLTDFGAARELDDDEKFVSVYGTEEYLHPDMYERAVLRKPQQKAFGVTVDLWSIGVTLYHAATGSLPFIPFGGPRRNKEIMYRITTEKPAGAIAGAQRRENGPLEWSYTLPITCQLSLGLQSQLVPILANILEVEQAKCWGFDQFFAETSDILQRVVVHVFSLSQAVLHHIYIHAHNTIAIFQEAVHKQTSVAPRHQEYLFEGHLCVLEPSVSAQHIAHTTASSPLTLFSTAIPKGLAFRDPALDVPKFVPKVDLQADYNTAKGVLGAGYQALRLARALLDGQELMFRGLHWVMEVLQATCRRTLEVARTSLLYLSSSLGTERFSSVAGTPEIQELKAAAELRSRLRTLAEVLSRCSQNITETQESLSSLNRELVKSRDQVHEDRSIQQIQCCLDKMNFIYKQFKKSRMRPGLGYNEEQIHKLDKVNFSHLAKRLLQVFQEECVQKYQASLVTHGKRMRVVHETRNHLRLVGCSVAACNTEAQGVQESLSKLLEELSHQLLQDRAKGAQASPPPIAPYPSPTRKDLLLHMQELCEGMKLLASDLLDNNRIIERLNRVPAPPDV
The experiment in a line: IKKε biochemical assay. To be noted: 10 point 1:4 dose response, 30 uM top concentration, 90 min at 25° C., LabChip EZ Reader II; read-out: IKKε_IC50. In short, it runs like this:
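Compounds in 1% DMSO final were incubated with IKKε enzyme and substrate at 25° C. for 90 min, then stopped. Substrate and product peaks were resolved by LabChip EZ Reader II mobility-shift read-out. Staurosporine at 10 uM final served as the full-inhibition control.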

The target in a further assay is T2, TBK1 (Homo sapiens, UniProt Q9UHD2).
T2 sequence (Q9UHD2 1-729): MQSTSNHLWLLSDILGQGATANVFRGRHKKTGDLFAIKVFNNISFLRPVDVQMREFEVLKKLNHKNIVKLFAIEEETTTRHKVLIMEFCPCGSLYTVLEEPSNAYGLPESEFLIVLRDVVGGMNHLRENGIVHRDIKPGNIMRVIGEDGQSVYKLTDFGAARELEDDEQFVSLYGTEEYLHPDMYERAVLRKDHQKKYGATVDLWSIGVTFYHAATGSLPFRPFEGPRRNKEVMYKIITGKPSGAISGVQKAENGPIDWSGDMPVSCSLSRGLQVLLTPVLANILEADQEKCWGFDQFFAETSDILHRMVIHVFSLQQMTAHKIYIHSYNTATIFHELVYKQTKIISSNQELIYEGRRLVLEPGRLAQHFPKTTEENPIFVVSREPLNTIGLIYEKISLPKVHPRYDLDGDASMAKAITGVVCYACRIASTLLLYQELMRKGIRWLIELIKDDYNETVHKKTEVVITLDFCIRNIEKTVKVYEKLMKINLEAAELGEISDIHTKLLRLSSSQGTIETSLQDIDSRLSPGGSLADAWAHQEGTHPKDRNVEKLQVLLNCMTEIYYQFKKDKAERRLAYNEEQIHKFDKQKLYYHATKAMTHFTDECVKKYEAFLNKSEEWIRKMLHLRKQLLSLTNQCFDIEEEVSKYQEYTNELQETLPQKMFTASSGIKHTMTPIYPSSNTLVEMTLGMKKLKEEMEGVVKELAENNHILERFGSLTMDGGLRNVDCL
The experiment in a line: TBK biochemical assay. To be noted: 10 point 1:4 dose response, 30 uM top concentration, 90 min at 25° C., LabChip EZ Reader II; read-out: TBK1_IC50. In short, it runs like this:
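Substrate and product were separated and quantified by microfluidic mobility-shift read (LabChip). 10 uM staurosporine served as the full-inhibition control, and the reference compound was tested from 1 uM final.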

Some results are limits rather than exact numbers.

Take `COc1nc(Nc2nccc(-c3ccc(OC4CCN(C(=O)[C@@H](O)CO)CC4C)c(C#N)c3)n2)ccc1N1CCN(C2COC2)CC1` (stereo partly drawn) [Example 272, 2-[1-((S)-2,3-Dihydroxy-propionyl)-3-methyl-piperidin-4-yloxy]-5-{2-[6-methoxy-5-(4-oxetan-3-yl-piperazin-1-yl)-pyridin-2-ylamino]-pyrimidin-4-yl}-benzonitrile]: the IC50 at IKKε and at TBK1 was below 0.1 µM each time.
Turning to `Cc1nc(C(=O)N2CCC(Oc3ccc(-c4ccnc(Nc5ccc(N6CCN(C7COC7)CC6)cc5)n4)cc3C#N)CC2)n[nH]1` [Example 273, 2-[[1-(5-methyl-1H-1,2,4-triazole-3-carbonyl)piperidin-4-yl]oxy]-5-[2-([4-[4-(oxetan-3-yl)piperazin-1-yl]phenyl]amino)pyrimidin-4-yl]benzonitrile], the IC50 at IKKε and at TBK1 was below 0.1 µM throughout.
Consider `Cc1nc(C(=O)N2CCC(Oc3ccc(-c4ccnc(Nc5ccc(N6CCN(C7COC7)CC6)cc5)n4)cc3C#N)CC2)c[nH]1` [Example 274, 2-[[1-(2-methyl-1H-imidazole-4-carbonyl)piperidin-4-yl]oxy]-5-[2-([4-[4-(oxetan-3-yl)piperazin-1-yl]phenyl]amino)pyrimidin-4-yl]benzonitrile], for which the IC50 on IKKε and on TBK1 was below 0.1 µM each time.
Consider `COc1nc(Nc2nccc(-c3ccc(OC4CCN(C(=O)[C@H](C)O)CC4(F)F)c(C#N)c3)n2)ccc1N1CCOCC1` (stereo partly drawn) [Example 275, 2-([3,3-difluoro-1-[(2S)-2-hydroxypropanoyl]piperidin-4-yl]oxy)-5-(2-[[6-methoxy-5-(morpholin-4-yl)pyridin-2-yl]amino]pyrimidin-4-yl)benzonitrile], for which the IC50 at IKKε and on TBK1 was below 0.1 µM throughout.
For `N#Cc1cc(-c2ccnc(Nc3cccc(C4CCN(C5COC5)CC4)c3)n2)ccc1OC1CCN(C(=O)[C@@H](O)CO)CC1(F)F` (stereo partly drawn) [Example 276, 2-[1-((S)-2,3-Dihydroxy-propionyl)-3,3-difluoro-piperidin-4-yloxy]-5-{2-[3-(l-oxetan-3-yl-piperidin-4-yl)-phenylamino]-pyrimidin-4-yl}-benzonitrile], the IC50 on IKKε and at TBK1 was below 0.1 µM each time.
For the molecule `C[C@H](O)C(=O)N1CC(COc2ccc(-c3ccnc(Nc4ccc(N5CCN(C6COC6)CC5)cc4)n3)cc2C#N)C1` [Example 277, 2-([1-[(2S)-2-hydroxypropanoyl]azetidin-3-yl]methoxy)-5-[2-([4-[4-(oxetan-3-yl)piperazin-1-yl]phenyl]amino)pyrimidin-4-yl]benzonitrile], the IC50 on IKKε and on TBK1 was below 0.1 µM throughout.
`C[C@@H](O)C(=O)N1CC(COc2ccc(-c3ccnc(Nc4ccc(N5CCN(C6COC6)CC5)cc4)n3)cc2C#N)C1` [Example 278, 2-([1-[(2R)-2-hydroxypropanoyl]azetidin-3-yl]methoxy)-5-[2-([4-[4-(oxetan-3-yl)piperazin-1-yl]phenyl]amino)pyrimidin-4-yl]benzonitrile]: the IC50 at IKKε and on TBK1 was 0.1 to 1 µM each time.
Consider `COc1nc(Nc2nccc(-c3ccc(OCC4CN(C(=O)[C@H](C)O)C4)c(C#N)c3)n2)ccc1N1CCN(C2COC2)CC1` [Example 279, 2-([1-[(2S)-2-hydroxypropanoyl]azetidin-3-yl]methoxy)-5-[2-([6-methoxy-5-[4-(oxetan-3-yl)piperazin-1-yl]pyridin-2-yl]amino)pyrimidin-4-yl]benzonitrile], for which the results for the IC50 on IKKε and on TBK1 were 0.1 to 1 µM and below 0.1 µM, respectively.
For `COc1nc(Nc2nccc(-c3ccc(OCC4CN(C(=O)[C@@H](C)O)C4)c(C#N)c3)n2)ccc1N1CCN(C2COC2)CC1` [Example 280, 2-([1-[(2R)-2-hydroxypropanoyl]azetidin-3-yl]methoxy)-5-[2-([6-methoxy-5-[4-(oxetan-3-yl)piperazin-1-yl]pyridin-2-yl]amino)pyrimidin-4-yl]benzonitrile] the same measures were 0.1 to 1 µM and 0.1 to 1 µM.
The matching figures for `COc1nc(Nc2ncc(C)c(-c3ccc(OC4CCN(C(=O)[C@H](C)O)CC4(F)F)c(C#N)c3)n2)ccc1N1CCN(C2COC2)CC1` (stereo partly drawn) [Example 283, 2-([33-difluoro-1-[(2S)-2-hydroxypropanoyl]piperidin-4-yl]oxy)-5-[2-([6-methoxy-5-[4-(oxetan-3-yl)piperazin-1-yl]pyridin-2-yl]amino)-5-methylpyrimidin-4-yl]benzonitrile]: below 0.1 µM and below 0.1 µM.
For the molecule `COc1nc(Nc2ncc(C)c(-c3ccc(O[C@H]4CCN(C(=O)[C@H](C)O)CC4(F)F)c(C#N)c3)n2)ccc1N1CCN(C2COC2)CC1` [Example 284, 2-[[(4S)-3,3-difluoro-1-[(2S)-2-hydroxypropanoyl]piperidin-4-yl]oxy]-5-[2-([6-methoxy-5-[4-(oxetan-3-yl)piperazin-1-yl]pyridin-2-yl]amino)-5-methylpyrimidin-4-yl]benzonitrile], the IC50 at IKKε and on TBK1 was below 0.1 µM in each case.
Take `COc1nc(Nc2ncc(C)c(-c3ccc(O[C@@H]4CCN(C(=O)[C@H](C)O)CC4(F)F)c(C#N)c3)n2)ccc1N1CCN(C2COC2)CC1` [Example 285, 2-[[(4R)-3,3-difluoro-1-[(2S)-2-hydroxypropanoyl]piperidin-4-yl]oxy]-5-[2-([6-methoxy-5-[4-(oxetan-3-yl)piperazin-1-yl]pyridin-2-yl]amino)-5-methylpyrimidin-4-yl]benzonitrile]: the IC50 at IKKε and at TBK1 was 0.1 to 1 µM throughout.
Consider `COc1nc(Nc2ncc(C)c(-c3ccc(OC4CCN(C(=O)[C@@H](C)O)CC4(F)F)c(C#N)c3)n2)ccc1N1CCN(C2COC2)CC1` (stereo partly drawn) [Example 286, 2-([33-difluoro-1-[(2R)-2-hydroxypropanoyl]piperidin-4-yl]oxy)-5-[2-([6-methoxy-5-[4-(oxetan-3-yl)piperazin-1-yl]pyridin-2-yl]amino)-5-methylpyrimidin-4-yl]benzonitrile], for which the values for the IC50 at IKKε and at TBK1 were 0.1 to 1 µM and below 0.1 µM, respectively.
For `COc1nc(Nc2ncc(F)c(-c3ccc(OC4CCN(C(=O)[C@H](C)O)CC4(F)F)c(C#N)c3)n2)ccc1N1CCN(C2COC2)CC1` (stereo partly drawn) [Example 287, 2-([3,3-difluoro-1-[(2S)-2-hydroxypropanoyl]piperidin-4-yl]oxy)-5-[5-fluoro-2-([6-methoxy-5-[4-(oxetan-3-yl)piperazin-1-yl]pyridin-2-yl]amino)pyrimidin-4-yl]benzonitrile] the same measures were below 0.1 µM and below 0.1 µM.
As for `COc1nc(Nc2ncc(F)c(-c3ccc(O[C@H]4CCN(C(=O)[C@H](C)O)CC4(F)F)c(C#N)c3)n2)ccc1N1CCN(C2COC2)CC1` [Example 288, 2-[[(4S)-33-difluoro-1-[(2S)-2-hydroxypropanoyl]piperidin-4-yl]oxy]-5-[5-fluoro-2-([6-methoxy-5-[4-(oxetan-3-yl)piperazin-1-yl]pyridin-2-yl]amino)pyrimidin-4-yl]benzonitrile], the IC50 at IKKε and on TBK1 was below 0.1 µM each time.
Turning to `COc1nc(Nc2ncc(F)c(-c3ccc(O[C@@H]4CCN(C(=O)[C@H](C)O)CC4(F)F)c(C#N)c3)n2)ccc1N1CCN(C2COC2)CC1` [Example 289, 2-[[(4R)-3,3-difluoro-1-[(2S)-2-hydroxypropanoyl]piperidin-4-yl]oxy]-5-[5-fluoro-2-([6-methoxy-5-[4-(oxetan-3-yl)piperazin-1-yl]pyridin-2-yl]amino)pyrimidin-4-yl]benzonitrile], the IC50 on IKKε and at TBK1 was below 0.1 µM each time.

Source of the values: patent US20230019491A1, “PYRIMIDINE TBK/IKKe INHIBITOR COMPOUNDS AND USES THEREOF” (Merck Patent GmbH, priority 2017, published 2023).
